Laboratory results: PMC3893891 (Journal of biomolecular screening, 2012)

Legend:
Format in all cases: biochemical
Conditions in all cases: OMFP substrate
PTP1B = biological target: T1, PTP1B (Homo sapiens, UniProt P18031); assay: Phosphatase assay of PTP1B
T1 sequence (P18031 1-435): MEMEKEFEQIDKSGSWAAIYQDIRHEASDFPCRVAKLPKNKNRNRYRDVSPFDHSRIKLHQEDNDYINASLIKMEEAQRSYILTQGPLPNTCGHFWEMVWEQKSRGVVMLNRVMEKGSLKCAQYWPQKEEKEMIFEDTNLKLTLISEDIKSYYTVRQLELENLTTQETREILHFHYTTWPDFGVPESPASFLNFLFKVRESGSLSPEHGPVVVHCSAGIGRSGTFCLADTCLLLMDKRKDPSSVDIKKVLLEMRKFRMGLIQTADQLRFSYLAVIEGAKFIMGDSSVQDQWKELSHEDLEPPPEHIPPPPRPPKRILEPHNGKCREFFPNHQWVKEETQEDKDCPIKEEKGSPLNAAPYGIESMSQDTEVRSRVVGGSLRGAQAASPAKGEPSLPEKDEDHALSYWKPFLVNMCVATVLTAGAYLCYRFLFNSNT

PPM1A = biological target: T2, PPM1A (Homo sapiens, UniProt P35813); assay: Phosphatase assay of PPM1A
T2 sequence (P35813 1-382): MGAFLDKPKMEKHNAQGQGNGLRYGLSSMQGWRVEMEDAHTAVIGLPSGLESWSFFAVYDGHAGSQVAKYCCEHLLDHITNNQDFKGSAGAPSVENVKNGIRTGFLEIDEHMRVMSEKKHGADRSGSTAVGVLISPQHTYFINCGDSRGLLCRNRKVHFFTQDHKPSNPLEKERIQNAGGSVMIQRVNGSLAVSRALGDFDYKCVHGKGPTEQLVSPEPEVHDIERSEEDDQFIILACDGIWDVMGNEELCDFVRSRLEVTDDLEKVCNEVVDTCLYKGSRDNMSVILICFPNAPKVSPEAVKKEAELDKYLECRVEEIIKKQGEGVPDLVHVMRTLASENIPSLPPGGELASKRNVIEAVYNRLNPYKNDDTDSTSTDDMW

Scp1 = biological target: T3, Scp1 (Homo sapiens, UniProt Q9GZU7); assay: Phosphatase assay of Scp1
T3 sequence (Q9GZU7 1-261): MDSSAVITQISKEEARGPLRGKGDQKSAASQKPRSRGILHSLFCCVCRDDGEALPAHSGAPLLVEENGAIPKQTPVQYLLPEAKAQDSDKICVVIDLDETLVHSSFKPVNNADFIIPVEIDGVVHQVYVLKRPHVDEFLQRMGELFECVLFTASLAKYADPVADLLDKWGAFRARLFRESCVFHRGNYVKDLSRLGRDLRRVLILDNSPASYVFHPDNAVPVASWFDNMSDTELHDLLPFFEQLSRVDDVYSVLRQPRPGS

O=C(N/N=C/c1ccc(Sc2ccccn2)o1)c1cccc([N+](=O)[O-])c1 [MLS000700592]
does not significantly inhibit: inhibition of PTP1B phosphatase activity (PTP1B) | inhibition of PPM1A phosphatase activity (PPM1A) | inhibition of Scp1 phosphatase activity (Scp1)

O=C(N/N=C/c1ccc(Sc2ccccn2)o1)c1ccccc1 [NCGC00241225]
does not significantly inhibit: inhibition of PTP1B phosphatase activity (PTP1B) | inhibition of PPM1A phosphatase activity (PPM1A) | inhibition of Scp1 phosphatase activity (Scp1)
